The record followed here is article PMC11862924, “Phenylpyrazoles as Inhibitors of the m^6A RNA-Binding Protein YTHDF2” (JACS Au, 2025).

Entries after “also recorded” stand apart in the source; their conditions may differ.

For data set [1], the system named is K562 cells. Description: Cell cycle analysis by flow cytometry. It is filed as cell-based, human. To be noted: 24 h. Here is the method: K562 cells were seeded in 6-well plates (1.0 × 10^6 cells/well) and incubated overnight. Compounds of different concentrations were added to the 6-well plates. The cell cycle analysis kit (SIGMA-Aldrich, MAK344) was used after incubation for 24 h. The cells were detached with trypsin and washed with 2 mL of ice-cold cell cycle assay buffer for each sample. The supernatant was removed after centrifugation. The cells were fixed by adding 2 mL of ice-cold 70% ethanol (added dropwise while vortexing) to the cell pellet and then placed on ice for 30 min. The supernatant was removed after centrifuging at 400 × g for 5 min. Cells were washed with a cell cycle assay buffer (2 mL). Cells were resuspended completely in 500 μL of staining solution and were protected from light exposure. After being incubated at room temperature for 30 min, each sample was analyzed by flow cytometry (Sony Biotechnology Cell Sorter SH800S) with proper machine settings. The data were analyzed by cell sorter software (Sony Biotechnology).

The subject of a further data set is JAR cells. Put plainly: Colony formation assay. It is filed as cell-based, human. To be noted: n = 3 biological replicates. The procedure:
JAR cells in the growth phase are prepared into cell suspensions by traditional digestion. A cell suspension (2 mL) with 200 cells per dish was seeded into a 6-well plate and incubated for 7 days. When visible colonies are present in the 6-well plate, the medium is discarded. The colonies are carefully soaked twice in PBS and dried in air. Cells were fixed with a 4% paraformaldehyde solution for 15 min. The paraformaldehyde solution was discarded, and Giemsa was used to stain the cells for 10 min. The dye solution was slowly washed away with Milli-Q water and then dried in air. The colony number and type were assessed manually under a microscope.

Data set [2] in a line: Apoptosis assay (Annexin V/PI flow cytometry). Conditions: human, K562 cells, read-out: Q3: viable. It is filed as cell-based, human. The procedure: (§1) K562 cells were seeded in six-well plates (1.0 × 10^6 cells/well) and incubated overnight. Compounds of different concentrations were added to the 6-well plates. After incubation for 24 h, the cells were detached with trypsin, washed twice with PBS and cold BioLegend’s cell staining buffer, and then, 5 μL of FITC Annexin V and 10 μL of propidium iodide solution were added. The cells were gently vortexed and incubated in a dark environment for 15 min at room temperature (25 °C). After adding 400 μL of Annexin V binding buffer to each tube, each sample was analyzed by flow cytometry (Sony Biotechnology Cell Sorter SH800S) with proper machine settings, and the data were analyzed by cell sorter software (Sony Biotechnology).

Data set [3] relates to K562 cells. Description: Apoptosis assay (Annexin V/PI flow cytometry). It is filed as cell-based, human. To be noted: 24 h. The procedure: as §1
The subject of a further data set is JAR. Description: CCK-8 proliferation assay, JAR. In kind it is cell-based. To be noted: Homo sapiens; CCK-8 kit assay, triplicates, 72 h; read-out: Anti-proliferation activity against cancer cells (IC50), JAR. The procedure:
(§2) The JAR, K562, HCT116, and MOLM13 cells were seeded in 96-well plates (3000 cells/well). After being cultured overnight, compounds were added together with the DMSO treatment (0.1%) as a control. After 72 h, CCK-8 solution (Vazyme, A311) was added, and the cells were incubated at 37 °C for 4 h. The absorbance was measured at 450 nm using a plate reader (TECAN Spark).

The target in a further data set is T1, YTHDF2 (Homo sapiens, UniProt Q9Y5A9).
T1 construct: A YTHDF2 YTH domain construct (residues 383–553) was subcloned to a pOPIN plasmid; made in house; host or cells: Escherichia coli BL21(DE3)
T1 sequence (Q9Y5A9 383-553): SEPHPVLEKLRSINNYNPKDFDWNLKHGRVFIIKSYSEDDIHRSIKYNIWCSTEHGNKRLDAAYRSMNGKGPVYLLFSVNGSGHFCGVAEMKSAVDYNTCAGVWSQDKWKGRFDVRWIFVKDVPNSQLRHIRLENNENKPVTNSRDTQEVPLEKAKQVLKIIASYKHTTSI
Description: Electrophoretic mobility shift assay (EMSA). Conditions: for inhibition of the YTHDF2–m6A RNA interaction in EMSA at 100 μM (in words): 100 μM compound, 250 nM YTHDF2, FAM-labeled m6A RNA; for concentration-dependent inhibition of YTHDF2–m6A RNA complex formation in EMSA (in words): 3.1–100 μM compound, 250 nM YTHDF2, 20 nM FAM-labelled m6A RNA. In kind it is binding. The procedure: Compounds with different concentrations (3.1–100 μM) were incubated with 250 nM YTH-domain and 20 nM FAM-17mer-RNA in a buffer containing 20 mM HEPES, pH 8.2, 50 mM NaCl, 0.05% Triton X-100, and 5% v/v glycerol for 20 min at 4 °C. […] Gel imaging was performed in ChemiDoc MP (Bio-Rad), and Cy2/Alexa488 fluorescence was detected with a 1-min exposure time. Quantification of the gel image was performed by ImageJ.

A further data set addresses T2, YTHDF2 YTH domain (Homo sapiens, UniProt Q9Y5A9).
T2 sequence (Q9Y5A9 383-553): T1 sequence (Q9Y5A9 383-553)
Put plainly: AlphaScreen assay.

For a further data set, the system named is HCT116. Description: CCK-8 proliferation assay, HCT116. It is filed as cell-based. Conditions: Homo sapiens, HCT-116; CCK-8 kit assay, triplicates, 72 h; read-out: Anti-proliferation activity against cancer cells (IC50), HCT116. Here is the method: as §2

Description for YTHDF2 YTH domain: Initially, the YTHDF2 YTH domain at different concentrations (0–2500 nM) was incubated with varied concentrations of RNA probes (5’-Bi-CGAm6ACUGUC–3′, IDT company) (5, 25, 50, and 100 nM) in 25 mM Hepes (pH 7.5), 100 mM NaCl, and 0.1% BSA to probe the optimal ratio between protein and RNA before the detection signal reached saturation. The AlphaScreen Histidine Detection Kit (Nickel Chelate) (PerkinElmer) 6760619 M and white 384-well Optiplates (PerkinElmer) were used. Anti-His receptor beads (PerkinElmer) (final concentration: 20 μg/mL) and streptavidin donor beads (final concentration: 20 μg/mL) were first added. The reaction mixture was then incubated at room temperature in a dark environment for 1 h to reach equilibrium. The optical signal was detected using a Tecan plate reader.
The inhibitory activities of the phenylpyrazoles (at 100 µM) against YTHDF2 binders
in the amplified luminescent proximity homogeneous assay (AlphaScreen).
phenylpyrazoles featuring a 2 -hydroxybenzoyl moiety R1 (blue) and a 4 -carboxyphenyl moiety
represent average values ± s.d.

As for `O=C(O)c1ccc(-n2cc(C(=O)c3c(O)ccc4ccccc34)cn2)cc1` [CK-75], the “cells in the G0/G1 phase” value with K562 cells [1] (25 μM) is recorded as more than 70%. In addition, the “cell cycle arrest (in words)” value in the data set with K562 cells [1] is “induced cell cycle arrest in the G0/G1 phase concentration-dependently”. Further, the “colony formation (in words)” value with JAR cells is given as “concentration-dependently inhibited the colony formation”. For the same molecule, in data set [2] (25 μM), the viability at 24 h, 25 µM worked out at 71.6%. Besides, in data set [2] (50 μM), the viability at 24 h, 50 µM was 65.1%. For the same molecule, in data set [2] (100 μM), the viability at 24 h, 100 µM came out at 54.5%. Moreover, the “total apoptosis (Q2 + Q4)” value is recorded as 28.3% with K562 cells [3] (25 μM), 34.9% in the data set with K562 cells [3] (50 μM) and 45.4% with K562 cells [3] (100 μM).

As for `O=C(O)c1ccc(-n2cc(C(=O)c3cc(Cl)cc(Cl)c3O)cn2)cc1` [CK-61], the IC50 with JAR is more than 50 µM. Also, at YTHDF2, the “inhibition of the YTHDF2–m6A RNA interaction in EMSA at 100 μM (in words)” value was “potent inhibition; also recorded: potently inhibited” and the “concentration-dependent inhibition of YTHDF2–m6A RNA complex formation in EMSA (in words)” value was “potent inhibition”. For the same molecule, the “inhibition at 100 μM in AlphaScreen” value against YTHDF2 YTH domain (100 μM compound) was more than 80%. Further, the “inhibitory IC50 in AlphaScreen (in words)” value against YTHDF2 YTH domain (Figures S3 and S4) was “low double-digit micromolar”. For the same molecule, the IC50 with HCT116 is more than 50 µM.

Regarding `Cc1cc(O)c(C(=O)c2cnn(-c3ccc(C(=O)O)cc3)c2)cc1Cl` [CK-79], the IC50 with JAR was determined as 32.1 ± 6.3 µM. On YTHDF2, the “inhibition of the YTHDF2–m6A RNA interaction in EMSA at 100 μM (in words)” value was “potent inhibition; also recorded: potently inhibited” and the “concentration-dependent inhibition of YTHDF2–m6A RNA complex formation in EMSA (in words)” value is “potent inhibition”. In addition, the IC50 in the data set with HCT116 was found to be 44 ± 6.8 µM.
